The source made the active and inactive calls. The calls are words filed in the database; no cut-off is given here. Some results are limits rather than exact numbers.

The first test concerns the target T1, Nicotinamide N-methyltransferase (Homo sapiens, UniProt P40261).
T1 sequence (P40261 whole entry): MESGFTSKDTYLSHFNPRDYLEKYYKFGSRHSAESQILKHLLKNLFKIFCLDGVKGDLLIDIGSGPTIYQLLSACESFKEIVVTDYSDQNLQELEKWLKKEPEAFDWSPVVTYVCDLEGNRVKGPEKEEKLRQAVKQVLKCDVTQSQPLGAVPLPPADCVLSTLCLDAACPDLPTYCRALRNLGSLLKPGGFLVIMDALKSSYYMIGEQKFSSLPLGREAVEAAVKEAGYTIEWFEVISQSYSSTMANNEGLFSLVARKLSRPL
The experiment in a line: Inhibition of wild-type human full length NNMT expressed in Escherichia coli BL21(DE3) cells assessed as reduction in 1-methyl-nicotinamide formation pre-incubated for 10 mins followed by AdoMet and nicotinamide addition measured after 30 mins by UHP-HILIC/Q-TOF-MS analysis.
One may read the IC50 as the concentration at which inhibition is half-maximal. In the case of `COC(=O)c1cccc(CN(CCCCC(N)=O)C[C@H]2O[C@@H](n3cnc4c(N)ncnc43)[C@H](O)[C@@H]2O)c1`, the IC50 is above 250 µM.

Consider `Nc1ncnc2c1ncn2[C@@H]1O[C@H](CN(CCC[C@H](N)C(=O)O)Cc2ccc3ccccc3c2)[C@@H](O)[C@H]1O`, for which the IC50 is above 250 µM.

Regarding `Nc1ncnc2c1ncn2[C@@H]1O[C@H](CN(CCCCC(=O)O)Cc2ccc3ccccc3c2)[C@@H](O)[C@H]1O`, the IC50 was above 250 µM.

Take `NC(=O)CCCN(Cc1cccc(C(=O)O)c1)C[C@H]1O[C@@H](n2cnc3c(N)ncnc32)[C@H](O)[C@@H]1O`: the IC50 was above 250 µM.

Consider `Nc1ncnc2c1ncn2[C@@H]1O[C@H](CSCC[C@H](N)C(=O)O)[C@@H](O)[C@H]1O` [S-ADENOSYLHOMOCYSTEINE], for which the IC50 was found to be 35.3 µM.

`Nc1ncnc2c1ncn2[C@@H]1O[C@H](C[C@@H](N)CC[C@H](N)C(=O)O)[C@@H](O)[C@H]1O` [SINEFUNGIN]: the IC50 was 12.5 µM.

As for `Nc1ncnc2c1ncn2[C@@H]1O[C@H](CN(CCCCC(=O)O)Cc2cccc(C(=O)O)c2)[C@@H](O)[C@H]1O`, the 50% inhibitory concentration (IC50) is above 250 µM.

Regarding `COC(=O)c1cccc(CN(CCCC(N)=O)C[C@H]2O[C@@H](n3cnc4c(N)ncnc43)[C@H](O)[C@@H]2O)c1`, the IC50 is above 250 µM.

In the case of `COC(=O)c1cccc(CN(CCCC(=O)O)C[C@H]2O[C@@H](n3cnc4c(N)ncnc43)[C@H](O)[C@@H]2O)c1`, the IC50 is above 250 µM.

Take `CC(C)N(Cc1cccc(C(=O)O)c1)C[C@H]1O[C@@H](n2cnc3c(N)ncnc32)[C@H](O)[C@@H]1O`: the IC50 was above 250 µM.

`NC(=O)CCCCN(Cc1cccc(C(N)=O)c1)C[C@H]1O[C@@H](n2cnc3c(N)ncnc32)[C@H](O)[C@@H]1O`: the half-inhibitory concentration (IC50) was above 250 µM.

For the compound `NC(=O)CCCN(Cc1ccc2ccccc2c1)C[C@H]1O[C@@H](n2cnc3c(N)ncnc32)[C@H](O)[C@@H]1O`, the IC50 turned out to be 111 µM.

As to `NC(=O)CCCN(Cc1cccc(C(N)=O)c1)C[C@H]1O[C@@H](n2cnc3c(N)ncnc32)[C@H](O)[C@@H]1O`, the concentration for half-maximal inhibition (IC50) is above 250 µM.

Consider `NC(=O)CCCCN(Cc1cccc(C(=O)O)c1)C[C@H]1O[C@@H](n2cnc3c(N)ncnc32)[C@H](O)[C@@H]1O`, for which the 50% inhibitory concentration (IC50) is above 250 µM.

On to `NC(=O)c1cccc(CN(CCCCC(=O)O)C[C@H]2O[C@@H](n3cnc4c(N)ncnc43)[C@H](O)[C@@H]2O)c1`, for which the half-inhibitory concentration (IC50) is above 250 µM.

For the compound `NC(=O)c1cccc(CCN(CCC[C@H](N)C(=O)O)C[C@H]2O[C@@H](n3cnc4c(N)ncnc43)[C@H](O)[C@@H]2O)c1`, the IC50 was determined as 4.36 µM.

With `NC(=O)c1cccc(CN(CCCC(=O)O)C[C@H]2O[C@@H](n3cnc4c(N)ncnc43)[C@H](O)[C@@H]2O)c1`, the concentration for half-maximal inhibition (IC50) is above 250 µM.

Turning to `Nc1ncnc2c1ncn2[C@@H]1O[C@H](CN(CCCC(=O)O)Cc2ccc3ccccc3c2)[C@@H](O)[C@H]1O`, the IC50 was above 250 µM.

On to `COC(=O)c1cccc(CN(CCCCC(=O)O)C[C@H]2O[C@@H](n3cnc4c(N)ncnc43)[C@H](O)[C@@H]2O)c1`, for which the half-maximal inhibitory concentration (IC50) was above 250 µM.

Regarding `Nc1ncnc2c1ncn2[C@@H]1O[C@H](CN(CCCC(=O)O)Cc2cccc(C(=O)O)c2)[C@@H](O)[C@H]1O`, the IC50 is above 250 µM.

Take `COC(=O)c1cccc(CN(C[C@H]2O[C@@H](n3cnc4c(N)ncnc43)[C@H](O)[C@@H]2O)C(C)C)c1`: the 50% inhibitory concentration (IC50) is above 250 µM.

On to `CC(C)N(Cc1cccc(C(N)=O)c1)C[C@H]1O[C@@H](n2cnc3c(N)ncnc32)[C@H](O)[C@@H]1O`, for which the IC50 was above 250 µM.

With `CC(C)N(Cc1ccc2ccccc2c1)C[C@H]1O[C@@H](n2cnc3c(N)ncnc32)[C@H](O)[C@@H]1O`, the IC50 amounted to 130 µM.

The subject of another test is HSC-2. Kind of test: Antiproliferative activity against human HSC2 cells assessed as reduction in cell viability at 10 uM measured after 48 hrs by MTT assay relative to control. Format: functional. For orientation: Tetrazolium assays rely on reduction of a dye to a coloured formazan, in cell work by metabolically active cells.
Consider `Nc1ncnc2c1ncn2[C@@H]1O[C@H](CN(CC[C@H](N)C(=O)O)Cc2ccc3ccccc3c2)[C@@H](O)[C@H]1O`, for which the Activity is 20%.

Another test has as its system HSC-2. The experiment in a line: Antiproliferative activity against human HSC2 cells assessed as reduction in cell viability at 100 uM measured after 72 hrs by MTT assay relative to control. The test is classed as functional.
Turning to `Nc1ncnc2c1ncn2[C@@H]1O[C@H](CN(CC[C@H](N)C(=O)O)Cc2ccc3ccccc3c2)[C@@H](O)[C@H]1O`, the Activity is listed as 44%.

A further test concerns HSC-2. Kind of test: Antiproliferative activity against human HSC2 cells assessed as reduction in cell viability at 1 to 100 uM measured up to 72 hrs by MTT assay. The test is classed as functional, cell-based.
As for `Nc1ncnc2c1ncn2[C@@H]1O[C@H](CN(CCC[C@H](N)C(=O)O)Cc2ccc3ccccc3c2)[C@@H](O)[C@H]1O`, the result was inactive.

On to `NC(=O)c1cccc(CN(CC[C@H](N)C(=O)O)C[C@H]2O[C@@H](n3cnc4c(N)ncnc43)[C@H](O)[C@@H]2O)c1`, for which the outcome was inactive.

For `NC(=O)c1cccc(CCN(CCC[C@H](N)C(=O)O)C[C@H]2O[C@@H](n3cnc4c(N)ncnc43)[C@H](O)[C@@H]2O)c1`, the outcome was inactive.

The test system of the next test is HSC-2. Kind of test: Antiproliferative activity against human HSC2 cells assessed as reduction in cell viability at 50 uM measured after 48 hrs by MTT assay relative to control. The test is classed as functional.
On to `Nc1ncnc2c1ncn2[C@@H]1O[C@H](CN(CC[C@H](N)C(=O)O)Cc2ccc3ccccc3c2)[C@@H](O)[C@H]1O`, for which the Activity was determined as 21%.

Another test relates to HSC-2. The experiment in a line: Antiproliferative activity against human HSC2 cells assessed as reduction in cell viability at 100 uM measured after 48 hrs by MTT assay relative to control. The test is classed as functional.
As for `Nc1ncnc2c1ncn2[C@@H]1O[C@H](CN(CC[C@H](N)C(=O)O)Cc2ccc3ccccc3c2)[C@@H](O)[C@H]1O`, the Activity came to 27%.

For the origin of these results see ChEMBL document CHEMBL4304774, “Bisubstrate Inhibitors of Nicotinamide N-Methyltransferase (NNMT) with Enhanced Activity” (J Med Chem, 2019).
